Measured values published in patent US9180116B2, “Difluorolactam compounds as EP4 receptor-selective agonists for use in the treatment of EP4-mediated diseases and conditions” (Cayman Chemical Company, Inc., priority 2012, dated 2015).
Like-named read-outs stand apart in the source and are kept apart here. Each block holds one compound with its values, some of them ahead of it.

Tests used:
rat EP4 receptor [1] = target: T1, rat EP4 receptor (Rattus norvegicus (Rat), UniProt P43114); experiment: SEAP activity assay for EP4 agonist (STEP plate format); format: cell-based
T1 sequence (P43114 whole entry): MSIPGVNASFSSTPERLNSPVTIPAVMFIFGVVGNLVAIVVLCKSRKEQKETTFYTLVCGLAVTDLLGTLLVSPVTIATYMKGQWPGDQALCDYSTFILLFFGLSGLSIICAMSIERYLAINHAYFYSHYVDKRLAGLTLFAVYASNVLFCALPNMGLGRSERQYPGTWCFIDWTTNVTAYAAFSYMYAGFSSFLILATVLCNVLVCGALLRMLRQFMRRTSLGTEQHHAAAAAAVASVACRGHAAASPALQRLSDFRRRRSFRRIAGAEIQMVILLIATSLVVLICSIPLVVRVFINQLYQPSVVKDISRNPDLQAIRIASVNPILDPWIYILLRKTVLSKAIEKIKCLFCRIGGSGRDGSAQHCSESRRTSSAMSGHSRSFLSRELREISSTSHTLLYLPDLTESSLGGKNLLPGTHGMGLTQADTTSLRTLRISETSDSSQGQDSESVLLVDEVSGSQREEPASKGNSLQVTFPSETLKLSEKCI
Description: (§1) Functional Cellular Assays (STEP Plate Format)
(§2) Procedure of SEAP Activity Assay for EP2/EP4 Agonist
(§3) 3. […] In addition each concentration had triplicates.
(§4) 4. […] Cover the plate with the lid.

rat EP4 receptor [2] = target: T1, rat EP4 receptor; experiment: cAMP level assay for EP4 agonist (STEP plate format); format: cell-based; details: read-out: STEP cell functional assay EC50 cAMP/EP4
Description: as §1
Procedure of cAMP Assay for EP2/EP4 Agonist
as §3
6. Aspirate the supernatant.

[3] = target: Human Prostanoid EP4 Receptor (Homo sapiens (Human), UniProt P35408); experiment: Radioligand binding assay, agonist site of human prostanoid EP4 receptor in transfected HEK-293 cells; details: for IC50: read-out: hEP4 receptor binding IC50; for Ki: read-out: hEP4 receptor binding Ki
Human Prostanoid EP4 Receptor, sequence (P35408 whole entry): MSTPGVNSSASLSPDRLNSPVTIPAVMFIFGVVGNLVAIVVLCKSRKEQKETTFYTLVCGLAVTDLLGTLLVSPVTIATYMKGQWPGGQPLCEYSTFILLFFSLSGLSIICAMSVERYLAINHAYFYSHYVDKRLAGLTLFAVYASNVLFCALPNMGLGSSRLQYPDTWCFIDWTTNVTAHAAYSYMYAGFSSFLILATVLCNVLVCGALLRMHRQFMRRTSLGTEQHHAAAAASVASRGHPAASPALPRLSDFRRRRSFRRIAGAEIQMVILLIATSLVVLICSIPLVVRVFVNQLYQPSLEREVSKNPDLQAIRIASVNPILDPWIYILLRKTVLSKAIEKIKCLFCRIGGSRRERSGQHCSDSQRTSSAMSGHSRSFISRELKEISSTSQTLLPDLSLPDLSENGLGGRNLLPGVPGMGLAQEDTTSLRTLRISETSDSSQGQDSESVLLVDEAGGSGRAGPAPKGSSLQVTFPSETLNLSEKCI
Description: Radioligand Binding Assay for the Evaluation of the Affinity of Compounds for the Agonist Site of the Human Prostanoid EP4 Receptor in Transfected HEK-293 Cells
Following incubation, the samples are filtered rapidly under vacuum through glass fiber filters (GF/B, Packard) presoaked with 0.3% PEI and rinsed several times with ice-cold 50 mM Tris-HCl using a 96-sample cell harvester (Unifilter, Packard). The filters are dried then counted for radioactivity in a scintillation counter (Topcount, Packard) using a scintillation cocktail (Microscint 0, Packard).

rat EP2 receptor = rat EP2 receptor (Rattus norvegicus (Rat), UniProt Q62928); experiment: SEAP activity assay for EP2 agonist (STEP plate format); format: cell-based; details: read-out: STEP cell functional assay EC50 SEAP/EP2
rat EP2 receptor, sequence (Q62928 whole entry): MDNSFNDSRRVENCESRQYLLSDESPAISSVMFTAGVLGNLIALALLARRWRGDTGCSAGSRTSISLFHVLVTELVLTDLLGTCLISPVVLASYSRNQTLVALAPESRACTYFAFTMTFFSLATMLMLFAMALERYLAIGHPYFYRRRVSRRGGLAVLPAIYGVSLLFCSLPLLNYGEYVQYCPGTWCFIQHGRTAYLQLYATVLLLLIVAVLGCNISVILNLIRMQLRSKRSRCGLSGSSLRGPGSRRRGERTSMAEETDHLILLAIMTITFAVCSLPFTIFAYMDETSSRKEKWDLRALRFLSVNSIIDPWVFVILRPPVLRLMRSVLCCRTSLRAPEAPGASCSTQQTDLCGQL
Description: as §1, §2, §3, §4

[4] = SEAP luminescence, 6-8 hours of stimulation, read-out: STEP cell functional assay EC50 SEAP/EP4
[5] = cAMP by ELISA, 30 minutes, 500 μM IBMX
[6] = [3H]PGE2 0.5 nM, HEK-293 cell membrane homogenates
[7] = SEAP luminescence, 6-8 hours of stimulation

EC50 (rat EP4 receptor [2]; cAMP readout, EP4): 0.37 nM
EC50 (rat EP2 receptor; SEAP readout, EP2): > 10000 nM
Compound: C[C@@H](CCCCc1ccccc1)[C@@H](O)/C=C/[C@H]1CC(F)(F)C(=O)N1CCCc1ccc(C(=O)O)s1 [Example 38D, 5-(3-((R)-3,3-difluoro-5-((3R,4S,E)-3-hydroxy-4-methyl-8-phenyloct-1-en-1-yl)-2-oxopyrrolidin-1-yl)propyl)thiophene-2-carboxylic acid]

EC50 (rat EP2 receptor; SEAP readout, EP2): 1020 nM
Compound: C[C@@H](CCCCCc1ccccc1)[C@H](O)/C=C/[C@H]1CC(F)(F)C(=O)N1CCCc1ccc(C(=O)O)s1 [Example 39C, 5-(3-((R)-3,3-difluoro-5-((3S,4S,E)-3-hydroxy-4-methyl-9-phenylnon-1-en-1-yl)-2-oxopyrrolidin-1-yl)propyl)thiophene-2-carboxylic acid]

EC50 (rat EP4 receptor [2]; cAMP readout, EP4): > 1000 nM
Compound: COC(=O)c1ccc(CCCN2C(=O)C(F)(F)C[C@@H]2/C=C/[C@H](O)[C@@H](C)CCCCc2ccccc2)s1 [Example 38B, methyl 5-(3-((R)-3,3-difluoro-5-((3R,4S,E)-3-hydroxy-4-methyl-8-phenyloct-1-en-1-yl)-2-oxopyrrolidin-1-yl)propyl)thiophene-2-carboxylate]

EC50 (rat EP2 receptor; [7]): 16.5 nM
Compound: CCCCC[C@H](O)/C=C/[C@H]1[C@H](O)CC(=O)[C@@H]1CCCCCCC(=O)O [PGE1, reference compound]

EC50 (rat EP4 receptor [2]; cAMP readout, EP4): > 1000 nM
Compound: COC(=O)c1ccc(CCCN2C(=O)C(F)(F)C[C@@H]2/C=C/[C@@H](O)[C@@H](C)CCCCc2ccccc2)s1 [Example 38A, methyl 5-(3-((R)-3,3-difluoro-5-((3S,4S,E)-3-hydroxy-4-methyl-8-phenyloct-1-en-1-yl)-2-oxopyrrolidin-1-yl)propyl)thiophene-2-carboxylate]

EC50 (rat EP4 receptor [2]; cAMP readout, EP4): > 1000 nM
Compound: COC(=O)c1ccc(CCCN2C(=O)C(F)(F)C[C@@H]2/C=C/[C@@H](O)[C@@H](C)CCCCCc2ccccc2)s1 [Example 39A, methyl 5-(3-((R)-3,3-difluoro-5-((3S,4S,E)-3-hydroxy-4-methyl-9-phenylnon-1-en-1-yl)-2-oxopyrrolidin-1-yl)propyl)thiophene-2-carboxylate]

EC50 (rat EP4 receptor [2]; cAMP readout, EP4): 0.059 nM
EC50 (rat EP2 receptor; SEAP readout, EP2): 79000 nM
Compound: C[C@@H](CCCCCc1ccccc1)[C@@H](O)/C=C/[C@H]1CC(F)(F)C(=O)N1CCCc1ccc(C(=O)O)s1 [Example 39D, 5-(3-((R)-3,3-difluoro-5-((3R,4S,E)-3-hydroxy-4-methyl-9-phenylnon-1-en-1-yl)-2-oxopyrrolidin-1-yl)propyl)thiophene-2-carboxylic acid]

EC50 (rat EP4 receptor [2]; cAMP readout, EP4): > 1000 nM
Compound: COC(=O)c1ccc(CCCN2C(=O)C(F)(F)C[C@@H]2/C=C/[C@H](O)[C@@H](C)CCCCCc2ccccc2)s1 [Example 39B, methyl 5-(3-((R)-3,3-difluoro-5-((3R,4S,E)-3-hydroxy-4-methyl-9-phenylnon-1-en-1-yl)-2-oxopyrrolidin-1-yl)propyl)thiophene-2-carboxylate]

EC50 (rat EP2 receptor; SEAP readout, EP2): 157 nM
Compound: C[C@@H](CCCCc1ccccc1)[C@H](O)/C=C/[C@H]1CC(F)(F)C(=O)N1CCCc1ccc(C(=O)O)s1 [Example 38C, 5-(3-((R)-3,3-difluoro-5-((3S,4S,E)-3-hydroxy-4-methyl-8-phenyloct-1-en-1-yl)-2-oxopyrrolidin-1-yl)propyl)thiophene-2-carboxylic acid]

The remaining lines, values behind:

Compound: O=C(O)CCCCCCN1C(=O)C(F)(F)C[C@@H]1/C=C/[C@@H](O)CCCCc1ccccc1 [Example 10C, 7-((R)-3,3-difluoro-5-((S,E)-3-hydroxy-7-phenylhept-1-en-1-yl)-2-oxopyrrolidin-1-yl)heptanoic acid]
EC50 (rat EP4 receptor [1]; [4]): 0.01 nM
EC50 (rat EP4 receptor [2]; [5]): 1.1 nM
IC50 [3, 6]: 4.9 nM
Ki [3, 6]: 1.8 nM

Compound: CCC#CC[C@H](C)[C@H](O)/C=C/[C@H]1CC(F)(F)C(=O)N1CCc1ccc(C(=O)O)cc1 [Example 12D, 4-(2-((R)-3,3-difluoro-5-((3S,4S,E)-3-hydroxy-4-methylnon-1-en-6-yn-1-yl)-2-oxopyrrolidin-1-yl)ethyl)benzoic acid]
EC50 (rat EP4 receptor [1]; [4]): 0.035 nM
EC50 (rat EP4 receptor [2]; [5]): 0.047 nM
IC50 [3, 6]: 0.32 nM
Ki [3, 6]: 0.12 nM
EC50 (rat EP2 receptor; [7]): 1630 nM

Compound: C[C@@H](CCCc1ccccc1)[C@@H](O)/C=C/[C@H]1CC(F)(F)C(=O)N1CCCc1ccc(C(=O)O)s1 [Example 28D, 5-(3-((R)-3,3-difluoro-5-((3R,4S,E)-3-hydroxy-4-methyl-7-phenylhept-1-en-1-yl)-2-oxopyrrolidin-1-yl)propyl)thiophene-2-carboxylic acid]
EC50 (rat EP4 receptor [2]; cAMP readout, EP4): 5.68 nM

Compound: CC#CC[C@H](C)[C@H](O)/C=C/[C@H]1CC(F)(F)C(=O)N1CCCCCCC(=O)O [Example 1F, 7-((R)-3,3-difluoro-5-((3S,4S,E)-3-hydroxy-4-methyloct-1-en-6-yn-1-yl)-2-oxopyrrolidin-1-yl)heptanoic acid]
EC50 (rat EP4 receptor [1]; [4]): 0.059 nM
EC50 (rat EP4 receptor [2]; [5]): 0.15 nM
IC50 [3, 6]: 1.2 nM
Ki [3, 6]: 0.44 nM

Compound: CCCCC[C@H](O)/C=C/[C@H]1CC(F)(F)C(=O)N1CCc1ccc(C(=O)O)cc1 [Example 21C, 4-(2-((R)-3,3-difluoro-5-((S,E)-3-hydroxyoct-1-en-1-yl)-2-oxopyrrolidin-1-yl)ethyl)benzoic acid]
EC50 (rat EP4 receptor [1]; [4]): 0.075 nM
EC50 (rat EP4 receptor [2]; [5]): 0.61 nM
IC50 [3, 6]: 0.22 nM
Ki [3, 6]: 0.082 nM
EC50 (rat EP2 receptor; [7]): 1960 nM

Compound: C[C@@H](Cc1ccccc1)[C@H](O)/C=C/[C@H]1CC(F)(F)C(=O)N1CCCc1ccc(C(=O)O)s1 [Example 36C, 5-(3-((R)-3,3-difluoro-5-((3S,4S,E)-3-hydroxy-4-methyl-5-phenylpent-1-en-1-yl)-2-oxopyrrolidin-1-yl)propyl)thiophene-2-carboxylic acid]
EC50 (rat EP4 receptor [2]; cAMP readout, EP4): 0.038 nM
EC50 (rat EP2 receptor; SEAP readout, EP2): 1000 nM

Compound: C[C@@H](c1ccccc1)[C@H](O)/C=C/[C@H]1CC(F)(F)C(=O)N1CCCc1ccc(C(=O)O)s1 [Example 35C, 5-(3-((R)-3,3-difluoro-5-((3R,4S,E)-3-hydroxy-4-phenylpent-1-en-1-yl)-2-oxopyrrolidin-1-yl)propyl)thiophene-2-carboxylic acid]
EC50 (rat EP4 receptor [2]; cAMP readout, EP4): 62 nM

Compound: C[C@@H](CCCc1ccccc1)[C@H](O)/C=C/[C@H]1CC(F)(F)C(=O)N1CCCc1ccc(C(=O)O)s1 [Example 28C, 5-(3-((R)-3,3-difluoro-5-((3S,4S,E)-3-hydroxy-4-methyl-7-phenylhept-1-en-1-yl)-2-oxopyrrolidin-1-yl)propyl)thiophene-2-carboxylic acid]
EC50 (rat EP4 receptor [2]; cAMP readout, EP4): 0.01 ± 0.021 nM
IC50 ([3]; human EP4 receptor binding): 0.74 nM
Ki ([3]; human EP4 receptor binding): 0.28 nM
EC50 (rat EP2 receptor; SEAP readout, EP2): 148 ± 5 nM

Compound: C[C@H](CCCc1ccccc1)[C@@H](O)/C=C/[C@H]1CC(F)(F)C(=O)N1CCCc1ccc(C(=O)O)s1 [Example 28H, 5-(3-((R)-3,3-difluoro-5-((3R,4R,E)-3-hydroxy-4-methyl-7-phenylhept-1-en-1-yl)-2-oxopyrrolidin-1-yl)propyl)thiphene-2-carboxylic acid]
EC50 (rat EP4 receptor [2]; cAMP readout, EP4): 3.15 nM

Compound: COC(=O)c1ccc(CCCN2C(=O)C(F)(F)C[C@@H]2/C=C/[C@H](O)[C@@H](C)Cc2ccccc2)s1 [Example 36B, methyl 5-(3-((R)-3,3-difluoro-5-((3R,4S,E)-3-hydroxy-4-methyl-5-phenylpent-1-en-1-yl)-2-oxopyrrolidin-1-yl)propyl)thiophene-2-carboxylate]
EC50 (rat EP4 receptor [2]; cAMP readout, EP4): > 1000 nM

Compound: COC(=O)c1ccc(CCCN2C(=O)C(F)(F)C[C@@H]2/C=C/[C@@H](O)[C@@H](C)CCc2ccccc2)s1 [Example 37A, methyl 5-(3-((R)-3,3-difluoro-5-((3S,4S,E)-3-hydroxy-4-methyl-6-phenylhex-1-en-1-yl)-2-oxopyrrolidin-1-yl)propyl)thiophene-2-carboxylate]
EC50 (rat EP4 receptor [2]; cAMP readout, EP4): 8.09 nM

Compound: CCCCC[C@H](O)/C=C/[C@H]1CC(F)(F)C(=O)N1CCCCCCC(=O)O [Example 9C, 7-((R)-3,3-difluoro-5-((S,E)-3-hydroxyoct-1-en-1-yl)-2-oxopyrrolidin-1-yl)heptanoic acid]
EC50 (rat EP4 receptor [1]; [4]): 0.059 nM
EC50 (rat EP4 receptor [2]; [5]): 0.37 nM
IC50 [3, 6]: 0.57 nM
Ki [3, 6]: 0.21 nM
EC50 (rat EP2 receptor; [7]): 205 ± 124 nM

Compound: COC(=O)c1ccc(CCCN2C(=O)C(F)(F)C[C@@H]2/C=C/[C@@H](O)[C@@H](C)Cc2ccccc2)s1 [Example 36A, methyl 5-(3-((R)-3,3-difluoro-5-((3S,4S,E)-3-hydroxy-4-methyl-5-phenylpent-1-en-1-yl)-2-oxopyrrolidin-1-yl)propyl)thiophene-2-carboxylate]
EC50 (rat EP4 receptor [2]; cAMP readout, EP4): 5.02 nM

Compound: COC(=O)c1ccc(CCCN2C(=O)C(F)(F)C[C@@H]2/C=C/[C@H](O)[C@H](C)CCCc2ccccc2)s1 [Example 28F, methyl 5-(3-((R)-3,3-difluoro-5-((3R,4R,E)-3-hydroxy-4-methyl-7-phenylhept-1-en-1-yl)-2-oxopyrrolidin-1-yl)propyl)thiphene-2-carboxylate]
EC50 (rat EP4 receptor [2]; cAMP readout, EP4): > 1000 nM

Compound: C[C@H](CCCc1ccccc1)[C@H](O)/C=C/[C@H]1CC(F)(F)C(=O)N1CCCc1ccc(C(=O)O)s1 [Example 28G, 5-(3-((R)-3,3-difluoro-5-((3S,4R,E)-3-hydroxy-4-methyl-7-phenylhept-1-en-1-yl)-2-oxopyrrolidin-1-yl)propyl)thiphene-2-carboxylic acid]
EC50 (rat EP4 receptor [2]; cAMP readout, EP4): 0.0162 nM
EC50 (rat EP2 receptor; SEAP readout, EP2): 65 nM
